The results in this text go back to patent publication US10240133B2, “ERK-derived peptides and uses thereof” (Yeda Research and Development Co. Ltd., priority 2013, dated 2019).

Entries after “also recorded” stand apart in the source; their conditions may differ.

Common to all, as to format: cell-based
The test system of assay [1] is HeLa and T47D cells. In words: Proliferation assay (Methylene Blue), optimal administration conditions. The note with it: administered every 24 h in fresh medium. As for the experimental part:
FIGS. 9A-9B illustrate the dose response of the EPE peptides on melanoma cells proliferation. LOXIMVI (FIG. 9A) and A2352 (FIG. 9B) melanoma cells were treated with the indicated doses of the EPE or Scr peptides. Presented as percent of viable cells at 72 h/initial cell number.
All cells, except of MCF-10A, were seeded into 12-well cell plates in 1% FBS medium. MCF-10A cells were seeded in their complete medium diluted 5 fold. DMSO, Scr peptide, EPE peptide, or U0126 (final concentration of 10 μM each) were added to the appropriated wells four hours later. Every day medium was changed to fresh one containing the same agents. The number of viable cells was measured by Methylene Blue assay at 72 h after cell seeding. Shortly, cells were fixed with 4% Formaldehyde for 2 h at 23° C., washed once with 0.1M Borate Buffer pH 8.5 and stained with of 1% Methylene Blue in 0.1M Borate Buffer for 10 min. Color was extracted by adding 0.1 M HCl for 3 h at 23° C., and examined at 595 nm. For time course experiments, viable cells were measured at 0, 24, 48, 72 and 96 h after cell seeding. For dose response experiments we treaded the cells with 0.1, 1, 3, 10, or 30 μM of peptides for 72 h, as described above.

Assay [2] has as its system JNK2 and p38. As to the kind of experiment: Nuclear translocation of other MAPKs (fluorescence microscopy). The note with it: HeLa cells; TPA or anisomycin. As for the experimental part: HeLa cells were serum-starved, pretreated with the EPE or Scr peptides, and then stimulated with either TPA (250 nM, 15 min), anisomycin (Anis, 10 μg/ml, 15 min) for the indicated times, or left untreated as control (NT). The cells were stained with αp38 or αgJNK Abs and DAPI. Scale bar—15 μm. (B) Extracts from cells treated as in A were analyzed by Western blotting with the indicated Abs.
Cells were fixed in 3% paraformaldehyde in PBS (20 min, 23° C.), and then permeabilized and blocked with 0.2% Triton X-100 in PBS-BSA (2%) for 20 min at 23° C. The fixed cells were sequentially incubated with appropriated Abs, (diluted in 10 μg/ml BSA/PBS) for 1 h, followed by either Cy-2 or rhodamine-conjugated secondary Abs and DAPI (diluted in BSA/PBS, 1:200) for 1 h. To follow the subcellular localization of the biotin-conjugated peptides, cells were incubated with Avidin-FITC (diluted in BSA/PBS 1:400) and DAPI. Slides were analyzed and photographed by a fluorescent microscope (Nikon, Japan, 600× magnification).

The test system of assay [3] is other cell lines examined. In words: Apoptosis (TUNEL, PARP-1 cleavage). As to the method: (§1) FIGS. 5A-5D illustrate that the EPE peptide leads to apoptosis of B-Raf mutant cancer cells. (A) The EPE peptide affects the morphology of treated cells. The indicated cells were treated with either the EPE or Scr peptides, DMSO, or taxol for 72 h, and photographed by a light microscope. (B) The EPE peptide induces apoptosis in melanoma cells detected by TUNEL. The indicated cell lines were treated as in A for 24 h. Apoptosis was detected by TUNEL staining. Images were obtained by florescence microscope. (C) Quantification of B. The bar-graph represents percent of apoptotic cells calculated in 10 different fields. (D) The EPE peptide induces apoptosis of melanoma cells detected by PARP cleavage. The indicated cell lines were treated as in (A) for 24 h. Cell extracts were subjected to Western blotting with αPARP Ab.
(§2) Cells were seeded on glass cover slips in a 12-wells plate at 25% confluence with medium containing 1% of FCS. Peptides (EPE or Scr), DMSO, or U0126 in a final concentration of 10 μM, were added after 4 h (considered as time “0”). TUNEL staining was performed at 24 h after the treatment according to manufacturer instruction (Roche Applied Science, Nutley, N.J., USA). Briefly, the medium was removed and cells were fixed with 3% of paraformaldehyde (1.5 h, 23° C.). Cells were rinsed twice with PBS and permeabilized with 0.1% Triton X-100 and 0.1% sodium citrate for 2 min on ice. Cells were rinsed twice with PBS and 28 μl of TUNEL reaction mixture (25 μl of TUNEL label, 2.5 μl of TUNEL enzyme and 0.1 mg/ml of DAPI) was added directly on top of the slide, cells were incubated for 16 h in humid box at 37° C. Cover slips were rinsed three times with PBS and mounted on microscope slides. The slides were dried and then subjected to image acquisition by a florescence microscope. For morphology assay, the cells were seeded at approximately 25% confluence in 6 cm plates with medium containing 1% FCS. Peptides (EPE and Scr) or DMSO or U0126 in a final concentration of 10 μM, were added after 4 h (considered to be time 0), 24 h and 48 h. Images were obtained by a light microscope (Olympus BX51) after 72 h.

Assay [4] deals with B-Raf mutated melanomas. In words: Apoptosis (TUNEL, PARP-1 cleavage). The following applies: 24 h. As for the experimental part:
as §1, §2

Consider “GQLNHILGILGEPEQED (Synthetic peptide (EPE)) [EPE peptide, NTS-derived peptide with phosphomimetic EPE motif]”, for which the “optimal administration conditions (maximal effect compared to Scr peptide)” value in assay [1] worked out at 10 µM. In addition, the “translocation of other MAPKs (JNK2, p38)” value in assay [2] is “affected neither the translocation of other MAPKs; also recorded: does not affect the nuclear translocation of JNK2 and p38”. Further, the “apoptosis / cell death” value in assay [3] was “No apoptosis was detected”. Also, in assay [4], the “apoptosis (TUNEL, PARP-1)” value was “enhanced apoptosis” and the “apoptosis relative to Taxol” value is on record as “as strong as the apoptosis induced by Taxol”.
